Source: ChEMBL document CHEMBL1130951, “A photoactivated prodrug” (Bioorg Med Chem Lett, 1998)

Tests used:
DH5 alpha [1] = assay: Compound was tested for its ability to inhibit growth of Escherichia coli DH5 alpha cells at 100 uM concentration; complete arrest of cell growth observed; format: functional, cell-based
DH5 alpha [2] = assay: Compound was irradiated and tested for its ability to inhibit growth of Escherichia coli DH5 alpha cells at 100 uM concentration; cell growth almost completely inhibited.; format: functional, cell-based
[3] = T1/2 was determined; format: ADME
DH5 alpha [4] = assay: Compound was tested for its ability to inhibit growth of Escherichia coli DH5 alpha cells at 100 uM concentration; slight growth inhibition observed; format: functional, cell-based

half-life [3] [min] | Structure (SMILES) | inhibition (DH5 alpha [1]) | inhibition (DH5 alpha [2]) | inhibition (DH5 alpha [4])
 | O=c1[nH]c(=O)n([C@H]2C[C@H](O)[C@@H](CO)O2)cc1F | complete arrest of cell growth observed |  | 
6 | COc1cc(COC(=O)OC[C@H]2O[C@@H](n3cc(F)c(=O)[nH]c3=O)C[C@@H]2O)c([N+](=O)[O-])cc1OC |  | cell growth almost completely inhibited | cell growth almost completely inhibited
